Earlier results as cited in patent publication US11267839B2, “Crystalline forms of LNT” (GLYCOM A/S, priority 2015, dated 2022).

Conditions: prior-art crystalline LNT from aqueous ethanol, after drying

weight taken back when stored in air (hygroscopic): around 8 % of its weight
Compound: CC(=O)N[C@H]1[C@H](O[C@H]2[C@@H](O)[C@@H](CO)O[C@@H](O[C@H]3[C@H](O)[C@@H](O)C(O)O[C@@H]3CO)[C@@H]2O)O[C@H](CO)[C@@H](O)[C@@H]1O[C@@H]1O[C@H](CO)[C@H](O)[C@H](O)[C@H]1O (stereo partly shown) [LNT, Galpβ1-3GlcNAcpβ1-3Galpβ1-4Glc]
